From patent publication US20190060384A1, “COMPOSITION FOR TREATMENT OR PREVENTION OF LUNG CANCER AND A METHOD THEREFORE” (priority 2017, published 2019)

Assays:
[1] = tested on: NCI-H520 cell xenograft nude mice; test: NCI-H520 xenograft nude mice: serum IL-6 and IFN-γ contents; assay type: in vivo, athymic nude mice; settings: vs tumor xenograft control, 35 days
Source text: (3) Effects of suppressing tumor-related cachexia: Changes in body weight, periovarian fat pad weight, and serum IL-6 content and histological change in a periovarian fat pad

[2] = male, ICR, mouse, in vivo, po, 28 days
Source text: (§1) Day 28; mortality, clinical symptoms, change in body weight, autopsy findings, hematological (14 items; Table 18) and hematochemical (20 items; Table 19) changes, histopathological changes (23 organs: brain cerebrum, cerebellum and bulbar, heart, thymus, lung, testis, epididymis, kidney, adrenal gland, spleen, liver, pancreas, alimentary tract esophagus, fundic portion, pyloric portion, duodenum, jejunum, ileum, cecum, colon and rectum, submandibular lymph node), and changes in content of liver lipid peroxidation and antioxidant defense system glutathione (GSH), and catalase (CAT) and superoxide dismutase (SOD) activities.

[3] = mouse, in vivo, po
Source text: as §1

[4] = tested on: liver lipid peroxidation, GSH, CAT, SOD; settings: mouse, in vivo, po
Source text: as §1

[5] = male, ICR, mouse, in vivo, po, 28 days; remark: listed apart in the source
Source text: as §1

[6] = tested on: NCI-H520 cell xenograft nude mice; test: NCI-H520 xenograft nude mice: immune organ weights and histopathology (spleen, submandibular lymph node); assay type: in vivo, athymic nude mice
[7] = tested on: NCI-H520 tumor mass; test: NCI-H520 xenograft nude mice: tumor mass histopathology and immunohistochemistry; assay type: in vivo, athymic nude mice
Source text: (1) Anticancer effects: Changes in tumor volume, tumor weight, tumor cell volume in a formed mass, and apoptotic cell percentages, and changes in immunoreactivities of caspase-3, PARP, NT, 4-HNE, CD31, Ki-67, COX-2, iNOS, and TNF-α in the formed mass

[8] = tested on: NCI-H520 cells; test: MTT cytotoxicity (cell viability)
Source text: Further, in order to observe the effects on tumor-related cachexia, a change in periovarian fat pad weight and a change in serum IL-6 content were observed, the changes in thickness of periovarian fat pad and diameter of adipocytes were each histopathologically observed, and in a tumor mass formed, the immunoreactivities of cleaved caspase-3 and poly(ADPribose) polymerase (PARP) as apoptotic markers, nitrotyrosine (NT) as an inducible nitric oxide synthases (iNOS)-related oxidative stress marker, 4-hydroxynonenal (4-HNE) as a lipid peroxidation marker, CD-31 and Ki-67 as angiogenic and cell proliferation markers, cyclooxygenase-2 (COX-2) as an inflammatory and angiogenic factor, and iNOS and TNF-α as cytokines related to immune activity were each observed by avidin-biotin-peroxidase (ABC)-based immunohistochemical methods.

[9] = tested on: NCI-H520 cell xenograft nude mice; test: NCI-H520 xenograft nude mice: splenic and peritoneal NK cell activity; assay type: in vivo, athymic nude mice; settings: vs tumor xenograft control, 35 days
[10] = mouse, in vivo, po; remark: listed apart in the source
Source text: as §1

[11] = mouse, in vivo, po; remark: listed apart in the source
Source text: as §1

[12] = tested on: NCI-H520 cell xenograft nude mice; test: NCI-H520 xenograft nude mice: tumor-related cachexia (body weight, periovarian fat pad); assay type: in vivo, athymic nude mice
[13] = tested on: NCI-H520 cell xenograft nude mice; test: NCI-H520 xenograft nude mice: splenic cytokine contents (TNF-α, IL-1β, IL-10); assay type: in vivo, athymic nude mice
[14] = male, ICR (CrljOri:CD1[ICR]), 28 day
[15] = NCI-H520 xenograft nude mice, oral once daily 35 days
[16] = vs tumor xenograft control, 35 days
[17] = tumor mass, oral once daily 35 days

## COc1cc2ncnc(Nc3ccc(F)c(Cl)c3)c2cc1OCCCN1CCOCC1 [Gefitinib, gefitinib]
[1]
  change in serum IFN-γ content: −0.62%
  change in serum IL-6 content: 2.09%
[2]
  Autopsy: Liver Discolorization: 7/7
  Autopsy: Liver Discolorization 1+: 0/7
  Autopsy: Liver Discolorization 2+: 1/7
  Autopsy: Liver Discolorization 3+: 6/7
  Autopsy: Liver Normal: 0/7
  Autopsy: Lung Congestion: 2/7
  Autopsy: Lung Congestion 1+: 2/7
  Autopsy: Lung Normal: 5/7
  Autopsy: Lymph nodes Hypertrophy: 7/7
  Autopsy: Lymph nodes Hypertrophy 1+: 0/7
  Autopsy: Lymph nodes Hypertrophy 2+: 4/7
  Autopsy: Lymph nodes Hypertrophy 3+: 3/7
  Autopsy: Lymph nodes Normal: 0/7
  Autopsy: Others Normal: 7/7
  Autopsy: Spleen Hypertrophy: 7/7
  Autopsy: Spleen Hypertrophy 1+: 0/7
  Autopsy: Spleen Hypertrophy 2+: 4/7
  Autopsy: Spleen Hypertrophy 3+: 3/7
  Autopsy: Spleen Normal: 0/7
[3]; male, ICR (CrljOri:CD1[ICR])
  Mortality, Days of treatment Periods (Day 0~27): 0
[3]; [14]
  Clinical signs: Any abnormal signs: 0/7 (0%)
  Clinical signs: Normal appearance: 7/7 (100%)
  Mortality, At termination (at end of 28 days of administration): 0
  Mortality, Total: 0/7 (0%)
[3]
  Body weight gain, Day 0~Day 14: 6.53 ± 0.65
  Body weight gain, Day 0~Day 28: 3.26 ± 0.57b
  Body weight gain, Day 14~Day 27: 1.80 ± 0.62
[4]
  change in SOD activity in the liver tissue: −81.18%
  change in content of GSH in the liver tissue: −69.14%
  change in liver lipid peroxidation: 129.64%
[5]
  Histopathology: Fundus Normal: 5/7
  Histopathology: Fundus fCV 1+ (local cysts): 2/7
  Histopathology: Liver IF 1+ (inflammatory cell infiltration): 0/7
  Histopathology: Liver IF-FN 1+ (infiltration with local necrosis): 0/7
  Histopathology: Liver IF-FN 2+: 1/7
  Histopathology: Liver IF-FN 3+: 6/7
  Histopathology: Liver Normal: 0/7
  Histopathology: Lung CG 1+ (hyperemia): 1/7
  Histopathology: Lung Normal: 6/7
  Histopathology: Lymph nodes Normal: 0/7
  Histopathology: Lymph nodes dHP 1+ (diffused lymphocyte hyperplasia): 0/7
  Histopathology: Lymph nodes dHP 2+: 4/7
  Histopathology: Lymph nodes dHP 3+: 3/7
  Histopathology: Others Normal: 7/7
  Histopathology: Spleen Normal: 0/7
  Histopathology: Spleen rHP 1+ (red pulp lymphocyte hyperplasia): 0/7
  Histopathology: Spleen rHP 2+: 3/7
  Histopathology: Spleen rHP 3+: 4/7
[6]; [15]
  Spleen Total thickness: 1097.00 ± 237.39a μm/central regions
  Spleen White pulp diameters: 334.72 ± 47.47e μm/white pulp
  Spleen White pulp numbers: 6.13 ± 1.81e /mm2
  Spleen absolute weight: 0.059 ± 0.010a
  Submandibular lymph node Cortex lymphoid cell follicle numbers: 7.50 ± 2.39a /mm2
  Submandibular lymph node Cortex thickness: 155.92 ± 34.47a μm/lymph node
  Submandibular lymph node Total thickness: 441.48 ± 114.06a μm/central regions
  Submandibular lymph node absolute weight: 0.003 ± 0.001a
[6]; vs tumor xenograft control
  change in cortex lymphoid cell follicle numbers: 15.38%
  change in submandibular lymph node total thickness: −8.92%
  change in total splenic thickness: −1.17%
[6]; [16]
  change in splenic absolute weight: −1.46%
  change in submandibular lymph node absolute weight: 4.00%
[7]; [17]
  Immunoreactive cell percentages: 4-hydroxynonenal: 29.12 ± 8.55a %/tumor cells
  Immunoreactive cell percentages: CD31: 29.90 ± 5.37a %/tumor cells
  Immunoreactive cell percentages: Cleaved caspase-3: 25.77 ± 5.73d %/tumor cells
  Immunoreactive cell percentages: Cyclooxygenase-2: 56.48 ± 12.30 %/tumor cells
  Immunoreactive cell percentages: INOS: 5.34 ± 1.44 %/tumor cells
  Immunoreactive cell percentages: Ki-67: 45.34 ± 7.63a %/tumor cells
  Immunoreactive cell percentages: Nitrotyrosine: 32.93 ± 10.64d %/tumor cells
  Immunoreactive cell percentages: PARP: 22.27 ± 10.20d %/tumor cells
  Tumor cell volume: 54.48 ± 12.96a %/mm2
[7]; vs tumor xenograft control
  change in proportion of the tumor tissue occupied by 4-HNE immunoreactive cells: 928.20%
  change in proportion of the tumor tissue occupied by CD31 immunoreactive cells: −41.30%
  change in proportion of the tumor tissue occupied by COX-2 immunoreactive cells: 6.37%
  change in proportion of the tumor tissue occupied by Ki-67 immunoreactive cells: −41.57%
  change in proportion of the tumor tissue occupied by NT immunoreactive cells: 368.85%
  change in proportion of the tumor tissue occupied by PARP immunoreactive cells: 673.85%
  change in proportion of the tumor tissue occupied by TNF-α immunoreactive cells: 417.98%
  change in proportion of the tumor tissue occupied by caspase-3 immunoreactive cells: 364.72%
  change in proportion of the tumor tissue occupied by iNOS immunoreactive cells: −11.83%
  change in proportion of the tumor tissue occupied by tumor cells: −30.68%
[8]; gefitinib 0.001 μM
  change in the viability of NCI-H520 cells vs vehicle control: −3.29%
[8]; gefitinib 0.01 μM
  change in the viability of NCI-H520 cells vs vehicle control: −7.47%
[8]; gefitinib 0.1 μM
  change in the viability of NCI-H520 cells vs vehicle control: −17.73%
[8]; gefitinib 1 μM
  change in the viability of NCI-H520 cells vs vehicle control: −29.55%
[8]; gefitinib 5 μM
  change in the viability of NCI-H520 cells vs vehicle control: −53.53%
[8]; gefitinib 10 μM
  change in the viability of NCI-H520 cells vs vehicle control: −62.71%
[8]; gefitinib 50 μM
  change in the viability of NCI-H520 cells vs vehicle control: −71.11%
[9]
  change in peritoneal NK cell activity: −4.12%
  change in splenic NK cell activity: −6.16%
[10]
  ALB: 1.39 ± 0.25a g/dL
  ALP: 107.00 ± 22.41 IU/L
  ALT: 215.00 ± 33.87d IU/L
  AST: 29.014 ± 23.57d IU/L
  BIL: 0.14 ± 0.05 mg/dL
  BUN: 18.19 ± 0.89 mg/dL
  CRE: 0.39 ± 0.18 mg/dL
  GLU: 92.43 ± 7.93 mg/dL
  Globulin: 3.73 ± 0.39a g/dL
  K: 9.97 ± 0.25 mmol/L
  PRO: 5.11 ± 0.19 g/dL
  TG: 195.71 ± 47.00 mg/dL
[11]
  BASO: 1.11 ± 0.21%
  EOS: 0.36 ± 0.24%
  HCT: 34.06 ± 2.18a %
  HGB: 14.87 ± 0.97a g/dl
  LYM: 90.22 ± 0.91c %
  MCH: 21.01 ± 1.93 pg
  MCHC: 42.31 ± 4.13 g/dL
  MCV: 49.81 ± 3.97 fL
  MONO: 3.59 ± 0.83a %
  NEU: 2.95 ± 0.87c %
  PLT: 760.00 ± 143.30 K/μL
  RBC: 6.30 ± 0.35c M/μL
  RET: 0.43 ± 0.37 ea/1000
  WBC: 7.50 ± 0.49e K/μL
[12]; NCI-H520 xenograft nude mice, 35 days, based on actual body weight
  Body weight gains: −0.40 ± 1.01ac g
[12]; NCI-H520 xenograft nude mice, baseline
  Body weights At first administration: 18.15 ± 1.42 g
[12]; [15]
  Actual body weights (excluding tumor weight): 17.75 ± 1.11ac g
  Body weights At sacrifice: 19.08 ± 1.14ac g
  Periovarian fat pad White adipocyte diameters: 13.52 ± 3.46 μm
  Periovarian fat pad absolute weight: 0.008 ± 0.002e
[12]; vs tumor xenograft control
  change in accumulated periovarian fat pad thickness: −11.13%
  change in average periovarian white fat pad cell diameter: 4.41%
[12]; [16]
  change in periovarian fat pad absolute weight: −1.52%
[12]; vs tumor xenograft control, final sacrifice date
  change in actual body weight excluding the tumor weight: −8.18%
[13]; [15]
  Splenic Interleukin-1β content: 7.82 ± 2.32 days
  Splenic Interleukin-10 content: 23.39 ± 12.60a
[13]; [16]
  change in content of splenic IL-1β: −3.08%
  change in content of splenic IL-10: −7.27%
  change in content of splenic TNF-α: −4.79%
